In ChEMBL document CHEMBL2086390, “Design, synthesis and structure-activity relationships of novel benzoxazolone derivatives as 18 kDa translocator protein (TSPO) ligands” (Bioorg Med Chem, 2012):
Values after ≈ are worked out from the molar mass of the structure shown.

How the values were obtained:
[1] = Aqueous solubility of the compound at pH 7.4; assay type: physicochemical; conditions: aqueous solution
[2] = Aqueous solubility of the compound at pH 2.5; assay type: physicochemical; conditions: aqueous solution
[3] = Oral bioavailability in rat at 10 mg/kg; assay type: ADME, organism-based; conditions: in vivo
[4] = Cmax in rat at 10 mg/kg, po; assay type: ADME, organism-based; parameters: dose 10 mg/kg, route oral; conditions: in vivo
[5] = Volume of distribution at steady state in rat at 1 mg/kg, iv; assay type: ADME, organism-based; parameters: dose 1 mg/kg, route intravenous; conditions: in vivo, read-out: Vdss
[6] = AUC in rat at 10 mg/kg, po; assay type: ADME, organism-based; parameters: dose 10 mg/kg, route oral; conditions: plasma
Rattus norvegicus = experiment: AUC in rat at 1 mg/kg, iv; assay type: ADME, organism-based, Plasma; parameters: dose 1 mg/kg, route intravenous; conditions: in vivo
[7] = Ratio of AUC in brain to AUC in plasma of rat at 10 mg/kg, po; assay type: ADME, organism-based; parameters: dose 10 mg/kg, route oral; conditions: brain and plasma
[8] = Tmax in rat at 10 mg/kg, po; assay type: ADME, organism-based; parameters: dose 10 mg/kg, route oral; conditions: in vivo

CN(C(=O)Cn1c(=O)oc2ccc(-c3ccccc3)cc21)c1ccccc1
solubility [1]: < 1 µg/mL

CN(C(=O)Cn1c(=O)oc2ccc(-c3ccccc3)cc21)c1cccnc1
solubility [1]: 45 µg/mL (≈ 125 µM)

CN(C(=O)Cn1c(=O)oc2ccc(-c3cccnc3)cc21)c1ccccc1
solubility [2]: 440 µg/mL (≈ 1220 µM)

CN(C(=O)Cn1c(=O)oc2ccc(-c3cccnc3)cc21)c1ccccc1.Cl
bioavailability [3]: 13.9% | Cmax [4]: 50.4 ng/mL | Vd [5]: 4.4 L/kg | AUC [6]: 8370 ng·h/mL | AUC (Rattus norvegicus): 6042 ng·h/mL | Kp [7]: 0.63 | Tmax [8]: 1 h
